Test results: US11464770B2, “Anticancer pharmaceutical composition” (NATIONAL CANCER CENTER, priority 2016, dated 2022)
Read-outs that look alike come from different tables or passages of the source.

How the values were obtained:
[1] = test system: blood cancer cell lines (e.g. HL-60, Jurkat, Raji, Ramos, Daudi, MOLT-4); assay: Cell based assay, cell viability (CellTiter-Glo), blood cancer cell lines; conditions: Homo sapiens
In short: (§1)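 Luminescent ATP assay quantified surviving cells after three days of treatment. Compound was applied at final concentrations of 0 to 2 μM, starting 24 h after cells were seeded.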

[2] = test system: bladder cancer cell lines; assay: Cell based assay, cell viability (CellTiter-Glo), bladder cancer cell lines
In short: as §1

[3] = MV4-11, blood cancer cell line MV-4-11, 72 hours, read-out: IC50, MV-4-11
[4] = blood cancer cell line Daudi, 72 hours, read-out: IC50, Daudi
[5] = blood cancer cell line HL-60, 72 hours, read-out: IC50, HL-60
[6] = blood cancer cell line Jurkat, 72 hours, read-out: IC50, Jurkat
[7] = blood cancer cell line MOLT-4, 72 hours, read-out: IC50, MOLT-4
[8] = blood cancer cell line Raji, 72 hours, read-out: IC50, Raji
[9] = blood cancer cell line Ramos (RA 1), 72 hours, read-out: IC50, Ramos (RA 1)
[10] = blood cancer cell line U-937, 72 hours, read-out: IC50, U-937
[11] = 253J cells, 72 hours treatment, 0 to 2 μM, CellTiter-Glo, read-out: IC50, bladder cancer cell line 253J
[12] = 5637 cells, 72 hours treatment, 0 to 2 μM, CellTiter-Glo, read-out: IC50, bladder cancer cell line 5637
[13] = Homo sapiens, T-24, T24 cells, 72 hours treatment, 0 to 2 μM, CellTiter-Glo, read-out: IC50, bladder cancer cell line T24
[14] = Homo sapiens, J82 cells, 72 hours treatment, 0 to 2 μM, CellTiter-Glo, read-out: IC50, bladder cancer cell line J82

SMILES | IC50 [1, 3] | IC50 [1, 4] | IC50 [1, 5] | IC50 [1, 6] | IC50 [1, 7] | IC50 [1, 8] | IC50 [1, 9] | IC50 [1, 10] | IC50 [2, 11] | IC50 [2, 12] | IC50 [2, 13] | IC50 ([2]; Homo sapiens, UMUC3, UM-UC-3 cells, 72 hours treatment, 0 to 2 μM, CellTiter-Glo, read-out: IC50, bladder cancer cell line UM-UC-3) | IC50 [2, 14] | IC50 ([2]; Homo sapiens, KU-19-19 cells, 72 hours treatment, 0 to 2 μM, CellTiter-Glo, read-out: IC50, bladder cancer cell line KU-19-19) | IC50 ([2]; MBT-2 cells, 72 hours treatment, 0 to 2 μM, CellTiter-Glo, read-out: IC50, bladder cancer cell line MBT-2) | IC50 ([2]; 253J cells, 72 hours, cell viability (CellTiter-Glo), read-out: IC50, 253J bladder cancer cell line) | IC50 ([2]; 5637 cells, 72 hours, cell viability (CellTiter-Glo), read-out: IC50, 5637 bladder cancer cell line) | IC50 ([2]; Homo sapiens, T-24, T24 cells, 72 hours, cell viability (CellTiter-Glo), read-out: IC50, T24 bladder cancer cell line) | IC50 ([2]; Homo sapiens, J82 cells, 72 hours, cell viability (CellTiter-Glo), read-out: IC50, J82 bladder cancer cell line)
CC(=O)c1c([S+]([O-])Cc2ccc(N)nc2)[nH]c2c(Br)ccc(Cl)c2c1=O (centres unmarked) [Compound 100, 3-acetyl-2-(((6-aminopyridin-3-yl)methyl)sulfinyl)-8-bromo-5-chloroquinolin-4(1H)-one] | > 2 µM | > 2 µM | > 2 µM | > 2 µM | > 2 µM | > 2 µM | > 2 µM | > 2 µM | > 2 µM | > 2 µM | > 2 µM |  | > 2 µM |  |  |  |  |  | 
O=C(c1c([S+]([O-])Cc2ccc(SC(F)(F)F)cc2)[nH]c2c(Br)ccc(Cl)c2c1=O)C1CC1 (centres unmarked) [Compound 101, 8-bromo-5-chloro-3-(cyclopropanecarbonyl)-2-((4-((trifluoromethyl)thio)benzyl)sulfinyl)quinolin-4(1H)-one] | > 2 µM | 1.04 µM | > 2 µM | 1.01 µM | 1.16 µM | 1.79 µM | 1.48 µM | > 2 µM |  | > 2 µM | > 2 µM |  | > 2 µM |  |  |  |  |  | 
CC(=O)c1c([S+]([O-])Cc2ccc(NS(C)(=O)=O)cc2)[nH]c2c(Br)ccc(Cl)c2c1=O (centres unmarked) [Compound 103, N-(4-(((3-acetyl-8-bromo-5-chloro-4-oxo-1,4-dihydroquinolin-2-yl)sulfinyl)methyl)phenyl)methane-sulfonamide] | > 2 µM | > 2 µM | > 2 µM | > 2 µM | > 2 µM | > 2 µM | > 2 µM | > 2 µM | > 2 µM | > 2 µM | > 2 µM |  | > 2 µM |  |  |  |  |  | 
COCCNc1ccc(C[S+]([O-])c2[nH]c3c(Br)ccc(Cl)c3c(=O)c2C(C)=O)cn1 (centres unmarked) [Compound 105, 3-acetyl-8-bromo-5-chloro-2-(((6-((2-methoxyethyl)amino)pyridin-3-yl)methyl)sulfinyl)quinolin-4(1H)-one] | > 2 µM | > 2 µM | > 2 µM | > 2 µM | > 2 µM | > 2 µM | > 2 µM | > 2 µM | > 2 µM | > 2 µM | > 2 µM |  | > 2 µM |  |  |  |  |  | 
CC(=O)c1c([S+]([O-])Cc2nonc2C)[nH]c2c(Br)ccc(Cl)c2c1=O (centres unmarked) [Compound 106, 3-acetyl-8-bromo-5-chloro-2-(((4-methyl-1,2,5-oxadiazol-3-yl)methyl)sulfinyl)quinolin-4(1H)-one] | > 2 µM | > 2 µM | > 2 µM | > 2 µM | > 2 µM | > 2 µM | > 2 µM | > 2 µM | > 2 µM | > 2 µM | > 2 µM |  | > 2 µM |  |  |  |  |  | 
CC(=O)c1c([S+]([O-])Cc2cnc3[nH]ccc3c2)[nH]c2c(Br)ccc(Cl)c2c1=O (centres unmarked) [Compound 107, 2-(((1H-pyrrolo[2,3-b]pyridin-5-yl)methyl)sulfinyl)-3-acetyl-8-bromo-5-chloroquinolin-4(1H)-one] | > 2 µM | > 2 µM | > 2 µM | > 2 µM | > 2 µM | > 2 µM | > 2 µM | > 2 µM |  |  |  |  |  |  |  | > 2 µM | > 2 µM | > 2 µM | > 2 µM

Results, then the compound that gave them:

IC50 [1, 3] | IC50 [1, 4] | IC50 [1, 5] | IC50 [1, 6] | IC50 [1, 7] | IC50 [1, 8] | IC50 [1, 9] | IC50 [1, 10] | IC50 [2, 11] | IC50 [2, 12] | IC50 [2, 13] | IC50 ([2]; Homo sapiens, UMUC3, UM-UC-3 cells, 72 hours treatment, 0 to 2 μM, CellTiter-Glo, read-out: IC50, bladder cancer cell line UM-UC-3) | IC50 [2, 14] | IC50 ([2]; Homo sapiens, KU-19-19 cells, 72 hours treatment, 0 to 2 μM, CellTiter-Glo, read-out: IC50, bladder cancer cell line KU-19-19) | IC50 ([2]; MBT-2 cells, 72 hours treatment, 0 to 2 μM, CellTiter-Glo, read-out: IC50, bladder cancer cell line MBT-2) | IC50 ([2]; 253J cells, 72 hours, cell viability (CellTiter-Glo), read-out: IC50, 253J bladder cancer cell line) | IC50 ([2]; 5637 cells, 72 hours, cell viability (CellTiter-Glo), read-out: IC50, 5637 bladder cancer cell line) | IC50 ([2]; Homo sapiens, T-24, T24 cells, 72 hours, cell viability (CellTiter-Glo), read-out: IC50, T24 bladder cancer cell line) | IC50 ([2]; Homo sapiens, J82 cells, 72 hours, cell viability (CellTiter-Glo), read-out: IC50, J82 bladder cancer cell line) | SMILES
> 2 µM | > 2 µM | > 2 µM | > 2 µM | > 2 µM | > 2 µM | > 2 µM | > 2 µM | > 2 µM | > 2 µM | > 2 µM | > 2 µM | > 2 µM | > 2 µM | > 2 µM |  |  |  |  | COc1cccc2[nH]c(SCc3ccc(S(F)(F)(F)(F)F)cc3)c(C(C)=O)c(=O)c12 [Compound 92, 3-acetyl-5-methoxy-2-((4-(pentafluoro--sulfanyl)benzyl)thio)quinolin-4(1H)-one]
> 2 µM | > 2 µM | > 2 µM | > 2 µM | > 2 µM | > 2 µM | > 2 µM | > 2 µM | > 2 µM | > 2 µM | > 2 µM |  | > 2 µM |  |  |  |  |  |  | COc1cccc2[nH]c([S+]([O-])Cc3ccc(S(F)(F)(F)(F)F)cc3)c(C(C)=O)c(=O)c12 (centres unmarked) [Compound 93, 3-acetyl-5-methoxy-2-((4-(pentafluoro--sulfanyl)benzyl)sulfinyl)quinolin-4(1H)-one]
1.38 µM | > 2 µM | > 2 µM | > 2 µM | > 2 µM | > 2 µM | > 2 µM | > 2 µM | > 2 µM | > 2 µM | > 2 µM |  | > 2 µM |  |  |  |  |  |  | COc1cccc2[nH]c([S+]([O-])Cc3cc(C)on3)c(C(C)=O)c(=O)c12 (centres unmarked) [Compound 94, 3-acetyl-5-methoxy-2-(((5-methylisoxazol-3-yl)methyl)sulfinyl)quinolin-4(1H)-one]
1.16 µM | 1.37 µM | 1.65 µM | 0.59 µM | > 2 µM | 1.66 µM | 1.06 µM | > 2 µM |  | > 2 µM | 1.66 µM |  | > 2 µM |  |  |  |  |  |  | Cc1cc(C[S+]([O-])c2[nH]c3c(Br)ccc(Cl)c3c(=O)c2C(=O)C2CC2)no1 (centres unmarked) [Compound 96, 8-bromo-5-chloro-3-(cyclopropanecarbonyl)-2-(((5-methylisoxazol-3-yl)methyl)sulfinyl)quinolin-4(1H)-one]
0.8 µM | 1.04 µM | > 2 µM | 0.51 µM | 0.77 µM | 1.29 µM | 0.7 µM | 1.35 µM |  | 1.91 µM |  |  | > 2 µM |  |  |  |  |  |  | Cc1cc(C[S+]([O-])c2[nH]c3c(Cl)ccc(Cl)c3c(=O)c2C(=O)C2CC2)no1 (centres unmarked) [Compound 97, 5,8-dichloro-3-(cyclopropanecarbonyl)-2-(((5-methylisoxazol-3-yl)methyl)sulfinyl)quinolin-4(1H)-one]
1.24 µM | 1.47 µM | > 2 µM | 0.73 µM | > 2 µM | > 2 µM | 1.23 µM | > 2 µM |  | > 2 µM | 1.32 µM |  | > 2 µM |  |  |  |  |  |  | CC(=O)c1c([S+]([O-])Cc2ccc(C#N)s2)[nH]c2c(Br)ccc(Cl)c2c1=O (centres unmarked) [Compound 98, 5-(((3-acetyl-8-bromo-5-chloro-4-oxo-1,4-dihydroquinolin-2-yl)sulfinyl)methyl)thiophene-2-carbonitrile]
0.95 µM | 1 µM | > 2 µM | 0.44 µM | 0.73 µM | 1.25 µM | 0.84 µM | 1.36 µM | 0.8 µM | 1.62 µM | 0.85 µM |  | 1.5 µM |  |  |  |  |  |  | CC(=O)c1c([S+]([O-])Cc2ccc(-n3cccn3)nc2)[nH]c2c(Br)ccc(Cl)c2c1=O (centres unmarked) [Compound 99, 2-(((6-(1H-pyrazol-1-yl)pyridin-3-yl)methyl)sulfinyl)-3-acetyl-8-bromo-5-chloroquinolin-4(1H)-one]
1.01 µM | 1.02 µM | 1.87 µM | > 2 µM | 0.94 µM | 1.4 µM | 0.98 µM | > 2 µM |  | > 2 µM | 1.03 µM |  | > 2 µM |  |  |  |  |  |  | CC(=O)c1c([S+]([O-])Cc2ccc(C(F)(F)F)nc2C)[nH]c2c(Br)ccc(Cl)c2c1=O (centres unmarked) [Compound 102, 3-acetyl-8-bromo-5-chloro-2-(((2-methyl-6-(trifluoromethyl)pyridin-3-yl)methyl)sulfinyl)quinolin-4(1H)-one]
0.95 µM | 1.15 µM | > 2 µM | > 2 µM | 0.93 µM | 1.44 µM | 1.06 µM | > 2 µM |  | > 2 µM | 1.03 µM |  | > 2 µM |  |  |  |  |  |  | CC(=O)c1c([S+]([O-])Cc2ccc(Cl)nc2)[nH]c2c(Br)ccc(Cl)c2c1=O (centres unmarked) [Compound 104, 3-acetyl-8-bromo-5-chloro-2-(((6-chloropyridin-3-yl)methyl)sulfinyl)quinolin-4(1H)-one]
